Data reported in PMC6886798, “Expression of myeloid Src-family kinases is associated with poor prognosis in AML and influences Flt3-ITD kinase inhibitor acquired resistance” (PLoS ONE, 2019).

What was measured:
Assay in all cases: KINOMEscan
Assay type in all cases: binding
Settings in all cases: 1.0 µM
[1] = biological target: T1, TXK (Homo sapiens, UniProt P42681)
T1 construct: DNA tag (qPCR barcode); purchased Eurofins/DiscoverX KINOMEscan scanMAX
Experimental: (§1) Kinase retention to the immobilized ligand is then measured using quantitative real-time PCR for each kinase-specific DNA barcode.

[2] = biological target: T2, MET (Homo sapiens, UniProt P08581)
T2 construct: purchased Eurofins/DiscoverX KINOMEscan scanMAX
Experimental: as §1

[3] = biological target: T3, CAMK2G (Homo sapiens, UniProt Q13555)
T3 construct: purchased Eurofins/DiscoverX KINOMEscan scanMAX
Experimental: as §1

[4] = biological target: T4, MYLK2 (Homo sapiens, UniProt Q9H1R3)
T4 construct: purchased Eurofins/DiscoverX KINOMEscan scanMAX
Experimental: as §1

[5] = biological target: T5, DYRK1B (Homo sapiens, UniProt Q9Y463)
T5 construct: purchased Eurofins/DiscoverX KINOMEscan scanMAX
Experimental: as §1

[6] = biological target: T6, PRKD3 (Homo sapiens, UniProt O94806)
T6 construct: purchased Eurofins/DiscoverX KINOMEscan scanMAX
Experimental: as §1

[7] = biological target: T7, WNK3 (Homo sapiens, UniProt Q9BYP7)
T7 construct: DNA tag (qPCR barcode); purchased Eurofins/DiscoverX KINOMEscan scanMAX
Experimental: as §1

[8] = biological target: T8, RSK1(Kin.Dom.1-N-terminal) (Homo sapiens, UniProt Q15418)
T8 construct: RSK1(Kin.Dom.1-N-terminal); purchased Eurofins/DiscoverX KINOMEscan scanMAX
Experimental: as §1

[9] = biological target: T9, TYRO3 (Homo sapiens, UniProt Q06418)
T9 construct: DNA tag (qPCR barcode); purchased Eurofins/DiscoverX KINOMEscan scanMAX
Experimental: as §1

[10] = biological target: T10, CSNK1D (Homo sapiens, UniProt P48730)
T10 construct: purchased Eurofins/DiscoverX KINOMEscan scanMAX
Experimental: as §1

[11] = biological target: T11, CSF1R (Homo sapiens, UniProt P07333)
T11 construct: purchased Eurofins/DiscoverX KINOMEscan scanMAX
Experimental: as §1

[12] = biological target: T12, PDPK1 (Homo sapiens, UniProt O15530)
T12 construct: purchased Eurofins/DiscoverX KINOMEscan scanMAX
Experimental: as §1

[13] = biological target: T13, RIPK2 (Homo sapiens, UniProt O43353)
T13 construct: purchased Eurofins/DiscoverX KINOMEscan scanMAX
Experimental: as §1

[14] = biological target: T14, HASPIN (Homo sapiens, UniProt Q8TF76)
T14 construct: purchased Eurofins/DiscoverX KINOMEscan scanMAX
Experimental: as §1

[15] = biological target: T15, p38-delta (Homo sapiens, UniProt O15264)
T15 construct: purchased Eurofins/DiscoverX KINOMEscan scanMAX
Experimental: as §1

[16] = biological target: T16, LZK (Homo sapiens, UniProt O43283)
T16 construct: purchased Eurofins/DiscoverX KINOMEscan scanMAX
Experimental: as §1

[17] = biological target: T17, EPHB6 (Homo sapiens, UniProt O15197)
T17 construct: purchased Eurofins/DiscoverX KINOMEscan scanMAX
Experimental: as §1

[18] = biological target: T18, RIOK3 (Homo sapiens, UniProt O14730)
T18 construct: purchased Eurofins/DiscoverX KINOMEscan scanMAX
Experimental: as §1

[19] = biological target: T19, RSK2(Kin.Dom.2-C-terminal) (Homo sapiens, UniProt P51812)
T19 construct: RSK2(Kin.Dom.2-C-terminal); purchased Eurofins/DiscoverX KINOMEscan scanMAX
Experimental: as §1

[20] = biological target: T20, BRAF (Homo sapiens, UniProt P15056)
T20 construct: purchased Eurofins/DiscoverX KINOMEscan scanMAX
Experimental: as §1

[21] = biological target: T21, PIK3CA(Q546K) (Homo sapiens, UniProt P42336, Q546K)
T21 construct: purchased Eurofins/DiscoverX KINOMEscan scanMAX
T21 sequence (P42336 whole entry Q546K): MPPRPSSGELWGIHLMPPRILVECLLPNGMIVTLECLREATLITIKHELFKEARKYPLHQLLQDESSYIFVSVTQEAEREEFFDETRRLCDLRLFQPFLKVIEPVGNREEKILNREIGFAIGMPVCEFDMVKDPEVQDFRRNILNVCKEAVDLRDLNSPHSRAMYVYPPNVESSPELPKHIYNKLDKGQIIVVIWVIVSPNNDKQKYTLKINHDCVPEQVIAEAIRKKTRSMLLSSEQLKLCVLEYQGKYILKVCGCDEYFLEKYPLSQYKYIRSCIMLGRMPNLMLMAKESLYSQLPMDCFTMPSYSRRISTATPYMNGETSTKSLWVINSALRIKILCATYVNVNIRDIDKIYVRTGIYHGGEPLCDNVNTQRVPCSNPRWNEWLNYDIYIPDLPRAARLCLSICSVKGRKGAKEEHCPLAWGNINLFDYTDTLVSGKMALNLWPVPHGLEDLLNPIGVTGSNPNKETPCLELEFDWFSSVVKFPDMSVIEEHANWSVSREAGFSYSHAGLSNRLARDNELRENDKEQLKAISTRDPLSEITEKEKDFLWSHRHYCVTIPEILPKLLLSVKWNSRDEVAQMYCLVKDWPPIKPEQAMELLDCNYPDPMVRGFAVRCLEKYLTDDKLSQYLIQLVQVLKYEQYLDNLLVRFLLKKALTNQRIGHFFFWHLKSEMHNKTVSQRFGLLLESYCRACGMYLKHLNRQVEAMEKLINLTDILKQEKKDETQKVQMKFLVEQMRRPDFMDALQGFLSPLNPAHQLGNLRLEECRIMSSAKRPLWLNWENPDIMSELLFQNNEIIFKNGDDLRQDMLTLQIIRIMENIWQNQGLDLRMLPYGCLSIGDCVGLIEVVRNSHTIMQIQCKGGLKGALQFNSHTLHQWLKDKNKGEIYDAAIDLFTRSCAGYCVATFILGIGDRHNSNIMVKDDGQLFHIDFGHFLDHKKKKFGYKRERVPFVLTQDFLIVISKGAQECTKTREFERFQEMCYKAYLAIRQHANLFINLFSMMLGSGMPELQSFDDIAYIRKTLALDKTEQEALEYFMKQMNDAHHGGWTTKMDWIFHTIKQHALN
Experimental: as §1

[22] = biological target: T22, MYLK (Homo sapiens, UniProt Q15746)
T22 construct: purchased Eurofins/DiscoverX KINOMEscan scanMAX
Experimental: as §1

[23] = biological target: T23, MLK2 (Homo sapiens, UniProt Q02779)
T23 construct: purchased Eurofins/DiscoverX KINOMEscan scanMAX
Experimental: as §1

[24] = biological target: T24, KIT(D816H) (Homo sapiens, UniProt P10721, D816H)
T24 construct: purchased Eurofins/DiscoverX KINOMEscan scanMAX
Experimental: as §1

[25] = biological target: T25, ACVR1 (Homo sapiens, UniProt Q04771)
T25 construct: purchased Eurofins/DiscoverX KINOMEscan scanMAX
Experimental: as §1

[26] = biological target: T26, RPS6KA5(Kin.Dom.1-N-terminal) (Homo sapiens, UniProt O75582)
T26 construct: RPS6KA5(Kin.Dom.1-N-terminal); purchased Eurofins/DiscoverX KINOMEscan scanMAX
Experimental: as §1

[27] = biological target: T27, QSK (Homo sapiens, UniProt Q9Y2K2)
T27 construct: purchased Eurofins/DiscoverX KINOMEscan scanMAX
Experimental: as §1

[28] = biological target: T28, JAK1(JH2domain-pseudokinase) (Homo sapiens, UniProt P23458)
T28 construct: JAK1(JH2domain-pseudokinase); purchased Eurofins/DiscoverX KINOMEscan scanMAX
Experimental: as §1

[29] = biological target: T29, MARK2 (Homo sapiens, UniProt Q7KZI7)
T29 construct: purchased Eurofins/DiscoverX KINOMEscan scanMAX
T29 sequence (Q7KZI7 whole entry): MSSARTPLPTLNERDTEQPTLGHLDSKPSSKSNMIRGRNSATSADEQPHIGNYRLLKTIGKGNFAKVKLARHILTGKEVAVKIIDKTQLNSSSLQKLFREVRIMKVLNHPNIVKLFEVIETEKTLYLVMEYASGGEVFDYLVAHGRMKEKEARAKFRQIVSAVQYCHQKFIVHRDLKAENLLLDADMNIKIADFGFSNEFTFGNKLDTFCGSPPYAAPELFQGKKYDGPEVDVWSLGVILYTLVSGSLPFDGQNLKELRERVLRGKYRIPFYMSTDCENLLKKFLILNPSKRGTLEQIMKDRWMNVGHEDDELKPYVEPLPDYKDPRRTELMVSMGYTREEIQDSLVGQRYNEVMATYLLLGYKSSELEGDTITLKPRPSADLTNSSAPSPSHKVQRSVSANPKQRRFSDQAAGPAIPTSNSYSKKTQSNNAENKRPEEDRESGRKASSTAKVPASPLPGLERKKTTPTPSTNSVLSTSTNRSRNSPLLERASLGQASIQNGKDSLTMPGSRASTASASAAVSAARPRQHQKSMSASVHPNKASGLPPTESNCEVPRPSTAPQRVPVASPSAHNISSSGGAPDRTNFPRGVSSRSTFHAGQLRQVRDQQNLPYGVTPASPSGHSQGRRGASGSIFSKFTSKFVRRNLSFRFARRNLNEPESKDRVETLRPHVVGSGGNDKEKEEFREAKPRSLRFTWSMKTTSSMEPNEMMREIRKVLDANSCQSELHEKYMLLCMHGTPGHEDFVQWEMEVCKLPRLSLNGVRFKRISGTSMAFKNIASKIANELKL
Experimental: as §1

[30] = biological target: T30, MAP3K15 (Homo sapiens, UniProt Q6ZN16)
T30 construct: purchased Eurofins/DiscoverX KINOMEscan scanMAX
T30 sequence (Q6ZN16 whole entry): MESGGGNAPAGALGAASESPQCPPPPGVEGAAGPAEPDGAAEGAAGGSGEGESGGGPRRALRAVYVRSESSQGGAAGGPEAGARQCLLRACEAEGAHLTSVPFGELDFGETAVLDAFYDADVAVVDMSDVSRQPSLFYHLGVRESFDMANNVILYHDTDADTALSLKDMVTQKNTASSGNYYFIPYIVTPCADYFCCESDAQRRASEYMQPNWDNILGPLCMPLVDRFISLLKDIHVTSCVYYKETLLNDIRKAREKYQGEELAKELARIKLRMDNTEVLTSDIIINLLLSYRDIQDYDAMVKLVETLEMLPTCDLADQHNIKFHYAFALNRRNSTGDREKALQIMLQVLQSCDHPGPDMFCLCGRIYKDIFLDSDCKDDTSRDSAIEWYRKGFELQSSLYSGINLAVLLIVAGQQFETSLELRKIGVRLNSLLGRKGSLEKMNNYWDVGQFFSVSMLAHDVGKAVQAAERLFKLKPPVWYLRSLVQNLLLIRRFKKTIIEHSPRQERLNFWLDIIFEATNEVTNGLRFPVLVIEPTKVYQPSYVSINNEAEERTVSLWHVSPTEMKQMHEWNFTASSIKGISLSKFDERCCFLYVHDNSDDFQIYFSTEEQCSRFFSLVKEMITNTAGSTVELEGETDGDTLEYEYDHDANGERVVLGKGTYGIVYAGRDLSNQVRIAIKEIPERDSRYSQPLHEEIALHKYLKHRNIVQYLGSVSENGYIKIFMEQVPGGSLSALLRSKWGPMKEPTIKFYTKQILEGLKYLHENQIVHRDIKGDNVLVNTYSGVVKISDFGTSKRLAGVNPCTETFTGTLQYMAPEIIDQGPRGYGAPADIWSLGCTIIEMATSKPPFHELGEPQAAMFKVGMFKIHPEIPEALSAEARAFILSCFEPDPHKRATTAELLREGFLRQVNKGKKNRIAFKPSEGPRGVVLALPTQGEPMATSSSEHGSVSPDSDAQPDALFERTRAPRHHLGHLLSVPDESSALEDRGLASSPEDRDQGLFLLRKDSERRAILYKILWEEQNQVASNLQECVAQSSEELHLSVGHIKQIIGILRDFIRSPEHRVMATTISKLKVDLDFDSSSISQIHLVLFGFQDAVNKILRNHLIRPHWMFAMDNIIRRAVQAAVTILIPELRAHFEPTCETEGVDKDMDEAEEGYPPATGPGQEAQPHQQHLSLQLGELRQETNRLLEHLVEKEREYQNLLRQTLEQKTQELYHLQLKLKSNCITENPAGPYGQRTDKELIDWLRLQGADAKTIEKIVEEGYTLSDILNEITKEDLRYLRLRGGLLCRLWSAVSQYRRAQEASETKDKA
Experimental: as §1

[31] = biological target: T31, TAK1 (Homo sapiens, UniProt O43318)
T31 construct: purchased Eurofins/DiscoverX KINOMEscan scanMAX
Experimental: as §1

[32] = biological target: T32, PIK3CA(H1047Y) (Homo sapiens, UniProt P42336, H1047Y)
T32 construct: purchased Eurofins/DiscoverX KINOMEscan scanMAX
T32 sequence (P42336 whole entry H1047Y): as the sequence (P42336 whole entry Q546K) above, with K546Q, H1047Y counted along it
Experimental: as §1

[33] = biological target: T33, NEK1 (Homo sapiens, UniProt Q96PY6)
T33 construct: purchased Eurofins/DiscoverX KINOMEscan scanMAX
T33 sequence (Q96PY6 whole entry): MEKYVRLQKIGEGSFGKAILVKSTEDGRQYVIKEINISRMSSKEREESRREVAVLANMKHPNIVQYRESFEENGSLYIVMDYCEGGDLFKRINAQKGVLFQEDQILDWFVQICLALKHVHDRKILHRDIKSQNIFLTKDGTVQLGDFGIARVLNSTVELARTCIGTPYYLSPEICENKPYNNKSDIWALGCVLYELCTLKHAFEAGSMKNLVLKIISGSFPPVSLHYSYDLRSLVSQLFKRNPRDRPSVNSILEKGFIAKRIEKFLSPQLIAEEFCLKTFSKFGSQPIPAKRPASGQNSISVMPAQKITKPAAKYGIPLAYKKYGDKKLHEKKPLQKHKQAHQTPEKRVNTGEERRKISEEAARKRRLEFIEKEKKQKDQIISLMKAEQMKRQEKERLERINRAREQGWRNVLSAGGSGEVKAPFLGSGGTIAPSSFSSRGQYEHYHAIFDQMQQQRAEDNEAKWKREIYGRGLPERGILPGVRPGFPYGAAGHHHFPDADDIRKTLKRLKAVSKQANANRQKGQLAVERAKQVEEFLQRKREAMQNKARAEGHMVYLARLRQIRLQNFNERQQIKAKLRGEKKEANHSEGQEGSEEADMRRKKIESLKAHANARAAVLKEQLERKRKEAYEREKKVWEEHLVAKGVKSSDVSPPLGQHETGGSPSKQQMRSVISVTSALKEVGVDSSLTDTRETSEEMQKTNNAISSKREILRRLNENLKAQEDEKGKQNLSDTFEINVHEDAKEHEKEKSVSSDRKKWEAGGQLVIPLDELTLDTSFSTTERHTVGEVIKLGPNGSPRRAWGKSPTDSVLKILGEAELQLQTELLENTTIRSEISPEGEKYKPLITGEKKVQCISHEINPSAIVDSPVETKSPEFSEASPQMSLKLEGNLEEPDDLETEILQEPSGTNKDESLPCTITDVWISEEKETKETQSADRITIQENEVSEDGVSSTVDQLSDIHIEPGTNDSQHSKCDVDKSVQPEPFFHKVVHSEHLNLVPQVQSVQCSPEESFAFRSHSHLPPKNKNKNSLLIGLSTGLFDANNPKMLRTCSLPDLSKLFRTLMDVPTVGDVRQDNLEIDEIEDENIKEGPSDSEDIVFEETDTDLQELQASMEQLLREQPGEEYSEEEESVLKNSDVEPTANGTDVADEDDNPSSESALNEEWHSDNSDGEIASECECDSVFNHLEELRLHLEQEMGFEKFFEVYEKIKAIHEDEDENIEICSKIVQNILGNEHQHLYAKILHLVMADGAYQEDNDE
Experimental: as §1

[34] = biological target: T34, ROCK1 (Homo sapiens, UniProt Q13464)
T34 construct: purchased Eurofins/DiscoverX KINOMEscan scanMAX
Experimental: as §1

[35] = biological target: T35, PIP5K1C (Homo sapiens, UniProt O60331)
T35 construct: purchased Eurofins/DiscoverX KINOMEscan scanMAX
Experimental: as §1

[36] = biological target: T36, PIK3CA(M1043I) (Homo sapiens, UniProt P42336, M1043I)
T36 construct: purchased Eurofins/DiscoverX KINOMEscan scanMAX
T36 sequence (P42336 whole entry M1043I): as the sequence (P42336 whole entry Q546K) above, with K546Q, M1043I counted along it
Experimental: as §1

[37] = biological target: T37, MST3 (Homo sapiens, UniProt Q9Y6E0)
T37 construct: purchased Eurofins/DiscoverX KINOMEscan scanMAX
Experimental: as §1

[38] = biological target: T38, ERK2 (Homo sapiens, UniProt P28482)
T38 construct: purchased Eurofins/DiscoverX KINOMEscan scanMAX
Experimental: as §1

[39] = biological target: T39, SRPK2 (Homo sapiens, UniProt P78362)
T39 construct: purchased Eurofins/DiscoverX KINOMEscan scanMAX
Experimental: as §1

[40] = biological target: T40, ABL1-phosphorylated (Homo sapiens, UniProt P00519)
T40 construct: purchased Eurofins/DiscoverX KINOMEscan scanMAX
Experimental: as §1

T1 sequence (P42681 whole entry): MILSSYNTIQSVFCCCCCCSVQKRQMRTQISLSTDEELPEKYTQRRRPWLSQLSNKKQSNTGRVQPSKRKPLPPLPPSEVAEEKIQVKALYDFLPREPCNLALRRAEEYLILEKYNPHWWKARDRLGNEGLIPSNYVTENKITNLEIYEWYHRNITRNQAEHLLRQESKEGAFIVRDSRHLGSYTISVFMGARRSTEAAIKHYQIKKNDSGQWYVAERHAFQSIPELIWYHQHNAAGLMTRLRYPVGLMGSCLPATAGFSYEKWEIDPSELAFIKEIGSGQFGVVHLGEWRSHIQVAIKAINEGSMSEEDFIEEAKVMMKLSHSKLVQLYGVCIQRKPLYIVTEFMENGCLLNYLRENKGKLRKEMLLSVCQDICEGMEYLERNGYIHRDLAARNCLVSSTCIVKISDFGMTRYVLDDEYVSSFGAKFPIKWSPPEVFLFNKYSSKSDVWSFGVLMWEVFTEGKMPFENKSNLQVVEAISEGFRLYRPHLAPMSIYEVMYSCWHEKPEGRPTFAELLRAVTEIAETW

**Q.** `CN1CCN(C2CCC(n3cc(-c4ccc(Oc5ccccc5)cc4)c4c(N)ncnc43)CC2)CC1` (stereo not shown) [A-419259] was tested. Which “% Control” value [1] did it give?
**A.** 13%

**Q.** And the “% Control” value [2]?
**A.** 58%

**Q.** What about the “% Control” value [3] of the same molecule?
**A.** 100%

**Q.** And the “% Control” value [4]?
**A.** 95%

**Q.** What about the “% Control” value [5] of the same molecule?
**A.** 21%

**Q.** And the “% Control” value [6]?
**A.** 17%

**Q.** What about the “% Control” value [7] of the same molecule?
**A.** 46%

**Q.** What about the “% Control” value [8] of the same molecule?
**A.** 8.4%

**Q.** What about the “% Control” value [9] of the same molecule?
**A.** 66%

**Q.** And the “% Control” value [10]?
**A.** 8.3%

**Q.** And the “% Control” value [11]?
**A.** 5.8%

**Q.** And the “% Control” value [12]?
**A.** 100%

**Q.** What about the “% Control” value [13] of the same molecule?
**A.** 3.6%

**Q.** What about the “% Control” value [14] of the same molecule?
**A.** 70%

**Q.** What about the “% Control” value [15] of the same molecule?
**A.** 99%

**Q.** And the “% Control” value [16]?
**A.** 85%

**Q.** What about the “% Control” value [17] of the same molecule?
**A.** 6.8%

**Q.** What about the “% Control” value [18] of the same molecule?
**A.** 64%

**Q.** What about the “% Control” value [19] of the same molecule?
**A.** 100%

**Q.** What about the “% Control” value [20] of the same molecule?
**A.** 66%

**Q.** And the “% Control” value [21]?
**A.** 100%

**Q.** What about the “% Control” value [22] of the same molecule?
**A.** 94%

**Q.** What about the “% Control” value [23] of the same molecule?
**A.** 29%

**Q.** And the “% Control” value [24]?
**A.** 40%

**Q.** What about the “% Control” value [25] of the same molecule?
**A.** 100%

**Q.** What about the “% Control” value [26] of the same molecule?
**A.** 77%

**Q.** What about the “% Control” value [27] of the same molecule?
**A.** 93%

**Q.** And the “% Control” value [28]?
**A.** 100%

**Q.** And the “% Control” value [29]?
**A.** 82%

**Q.** What about the “% Control” value [30] of the same molecule?
**A.** 79%

**Q.** What about the “% Control” value [31] of the same molecule?
**A.** 77%

**Q.** What about the “% Control” value [32] of the same molecule?
**A.** 99%

**Q.** And the “% Control” value [33]?
**A.** 100%

**Q.** And the “% Control” value [34]?
**A.** 90%

**Q.** And the “% Control” value [35]?
**A.** 89%

**Q.** What about the “% Control” value [36] of the same molecule?
**A.** 100%

**Q.** And the “% Control” value [37]?
**A.** 80%

**Q.** And the “% Control” value [38]?
**A.** 77%

**Q.** And the “% Control” value [39]?
**A.** 97%

**Q.** What about the “% Control” value [40] of the same molecule?
**A.** 0.25%
